# ChEMBL document CHEMBL1201862, “PubChem BioAssay data set” (2004)
#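 Test compounds were applied to cells in 96-well plates for 48 hours at 5 doses. GI50 = concentration required for 50% inhibition of growth.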 Active and inactive are the calls of the source. No stated cut-off is given here; in the data, active = GI50 up to about 1.1 µM and inactive = higher.
# Legend:
# Experiment in all cases: NCI-60 cell line screen, 48 h
# HCC 2998 = test system: HCC 2998
# TK-10 = test system: TK-10
# A549 = test system: A549
# HL-60 = test system: HL-60
# SF-539 = test system: SF-539
# T47D = test system: T47D
# SK-MEL-5 = test system: SK-MEL-5
# MDA-MB-231 = test system: MDA-MB-231
# IGROV-1 = test system: IGROV-1
# SK-MEL-2 = test system: SK-MEL-2
# DU-145 = test system: DU-145
# PC-3 = test system: PC-3
# OVCAR-5 = test system: OVCAR-5
# U-251 = test system: U-251
# MCF7 = test system: MCF7
# SW-620 = test system: SW-620
# SN12C = test system: SN12C
# NCI-H460 = test system: NCI-H460
# NCI-H522 = test system: NCI-H522
# NCI-H23 = test system: NCI-H23
SMILES,GI50 (HCC 2998),GI50 (TK-10),GI50 (A549),GI50 (HL-60),GI50 (SF-539),GI50 (T47D),GI50 (SK-MEL-5),GI50 (MDA-MB-231),GI50 (IGROV-1),GI50 (SK-MEL-2),GI50 (DU-145),GI50 (PC-3),GI50 (OVCAR-5),GI50 (U-251),GI50 (MCF7),GI50 (SW-620),GI50 (SN12C),GI50 (NCI-H460),GI50 (NCI-H522),GI50 (NCI-H23)
CC(=O)c1sc2c(c1OC(=O)c1ccc(Cl)cc1Cl)c(=O)n(-c1ccccc1)c(=S)n2-c1ccccc1,6.37 µM (inactive),4.57 µM (inactive),9.98 µM (inactive),3.81 µM (inactive),0.251 µM (active),9.27 µM (inactive),1.8 µM (inactive),0.861 µM (active),5.51 µM (inactive),0.264 µM (active),21.7 µM (inactive),0.608 µM (active),0.64 µM (active),0.342 µM (active),8.55 µM (inactive),3.97 µM (inactive),0.369 µM (active),1.99 µM (inactive),1.2 µM (inactive),5.83 µM (inactive)
c1ccc(C2C(=P(c3ccccc3)(c3ccccc3)c3ccccc3)P=PC2[P+](c2ccccc2)(c2ccccc2)c2ccccc2)cc1.c1ccc([B-](c2ccccc2)(c2ccccc2)c2ccccc2)cc1 (stereo not given),0.593 µM (active),0.762 µM (active),0.422 µM (active),0.107 µM (active),0.656 µM (active),0.191 µM (active),0.191 µM (active),0.39 µM (active),0.57 µM (active),0.675 µM (active),0.5 µM (active),0.471 µM (active),2.97 µM (inactive),0.176 µM (active),0.543 µM (active),0.767 µM (active),0.507 µM (active),0.447 µM (active),0.424 µM (active),0.351 µM (active)
NS(=O)(=O)c1ccc(NC(NC(=O)C(C(F)(F)F)C(F)(F)F)(C(F)(F)F)C(F)(F)F)cc1,> 100 µM (inactive),0.305 µM (active),> 100 µM (inactive),> 100 µM (inactive),> 100 µM (inactive),> 100 µM (inactive),> 100 µM (inactive),> 100 µM (inactive),> 100 µM (inactive),> 100 µM (inactive),> 100 µM (inactive),> 100 µM (inactive),> 100 µM (inactive),> 100 µM (inactive),> 100 µM (inactive),> 100 µM (inactive),> 100 µM (inactive),> 100 µM (inactive),> 100 µM (inactive),> 100 µM (inactive)
O=C1c2cc([N+](=O)[O-])sc2C(=O)c2cc([N+](=O)[O-])sc21,3.05 µM (inactive),5.89 µM (inactive),20.2 µM (inactive),0.0957 µM (active),3.2 µM (inactive),3.55 µM (inactive),2.51 µM (inactive),2.07 µM (inactive),1.56 µM (inactive),6.7 µM (inactive),10.3 µM (inactive),4.6 µM (inactive),7.11 µM (inactive),1.79 µM (inactive),2.58 µM (inactive),1.72 µM (inactive),2.8 µM (inactive),19.4 µM (inactive),1.44 µM (inactive),5.26 µM (inactive)
COC(=O)C1=C(C(=O)OC)C(Cc2ccccc2)(OO)OC1=O (stereo not given),60.1 µM (inactive),3.4 µM (inactive),27.4 µM (inactive),0.964 µM (active),3.15 µM (inactive),9.98 µM (inactive),4.26 µM (inactive),28.2 µM (inactive),4.65 µM (inactive),5.65 µM (inactive),23 µM (inactive),13.1 µM (inactive),18.8 µM (inactive),12.8 µM (inactive),3.78 µM (inactive),2.83 µM (inactive),4.22 µM (inactive),36.2 µM (inactive),2.32 µM (inactive),12.7 µM (inactive)
CCOC(=O)C1(C/C=C/CBr)Cc2ccccc2C1=O (stereo not given),9.02 µM (inactive),2.77 µM (inactive),10.5 µM (inactive),3.21 µM (inactive),1.81 µM (inactive),1.98 µM (inactive),2.67 µM (inactive),4.7 µM (inactive),2.7 µM (inactive),2.25 µM (inactive),3.38 µM (inactive),4.13 µM (inactive),3.02 µM (inactive),3.58 µM (inactive),2.48 µM (inactive),2.58 µM (inactive),1.99 µM (inactive),1.75 µM (inactive),1.63 µM (inactive),2.02 µM (inactive)
O=C(CC(c1ccccc1)C1C(=O)NC(=S)NC1=O)c1ccc([N+](=O)[O-])cc1 (stereo not given),31.6 µM (inactive),> 100 µM (inactive),> 100 µM (inactive),> 100 µM (inactive),> 100 µM (inactive),17.8 µM (inactive),> 100 µM (inactive),> 100 µM (inactive),> 100 µM (inactive),> 100 µM (inactive),> 100 µM (inactive),> 100 µM (inactive),> 100 µM (inactive),> 100 µM (inactive),17.7 µM (inactive),> 100 µM (inactive),> 100 µM (inactive),> 100 µM (inactive),> 100 µM (inactive),> 100 µM (inactive)
C/C=C/[C@@H](C(=O)OC)N1C(=O)c2ccccc2[C@H]1O,> 100 µM (inactive),> 100 µM (inactive),> 100 µM (inactive),> 100 µM (inactive),> 100 µM (inactive),> 100 µM (inactive),> 100 µM (inactive),> 100 µM (inactive),> 100 µM (inactive),> 100 µM (inactive),> 100 µM (inactive),> 100 µM (inactive),> 100 µM (inactive),> 100 µM (inactive),> 100 µM (inactive),> 100 µM (inactive),> 100 µM (inactive),> 100 µM (inactive),> 100 µM (inactive),> 100 µM (inactive)
CSc1c(C#N)c(N)nc2c(/N=N\c3ccc(Cl)cc3)c(N)nn12,5.94 µM (inactive),13.3 µM (inactive),25 µM (inactive),2.31 µM (inactive),5.85 µM (inactive),1.67 µM (inactive),14.6 µM (inactive),2.04 µM (inactive),1.85 µM (inactive),2.87 µM (inactive),2.24 µM (inactive),2.7 µM (inactive),17.3 µM (inactive),4.33 µM (inactive),2.17 µM (inactive),2.16 µM (inactive),3.17 µM (inactive),11.1 µM (inactive),6.19 µM (inactive),2.6 µM (inactive)
COC1=C(NC(C)=O)C(=O)c2nc3n(c2C1=O)CCC3,23.7 µM (inactive),30.3 µM (inactive),27.3 µM (inactive),10.1 µM (inactive),18.6 µM (inactive),34.3 µM (inactive),17.5 µM (inactive),13.3 µM (inactive),19.3 µM (inactive),17.7 µM (inactive),20.8 µM (inactive),34.8 µM (inactive),18.7 µM (inactive),23.8 µM (inactive),23.1 µM (inactive),20.9 µM (inactive),17.9 µM (inactive),27.5 µM (inactive),22.5 µM (inactive),20.4 µM (inactive)
COc1ccc(NC2Oc3cc4c(cc3C(c3cccc(OC)c3OC)C2C)OCO4)cc1 (stereo not given),43.5 µM (inactive),6.4 µM (inactive),5.53 µM (inactive),3.22 µM (inactive),17.7 µM (inactive),5.08 µM (inactive),13.6 µM (inactive),16.7 µM (inactive),8.75 µM (inactive),5.3 µM (inactive),4.16 µM (inactive),3.62 µM (inactive),19.2 µM (inactive),4.01 µM (inactive),8.81 µM (inactive),5.83 µM (inactive),6.19 µM (inactive),5.86 µM (inactive),6.24 µM (inactive),11.9 µM (inactive)
Cc1ccccc1N(C)S(=O)(=O)c1ccccc1[N+](=O)[O-],51.3 µM (inactive),> 100 µM (inactive),45.9 µM (inactive),27.9 µM (inactive),36.5 µM (inactive),58.1 µM (inactive),15.4 µM (inactive),22.3 µM (inactive),> 100 µM (inactive),47.5 µM (inactive),> 100 µM (inactive),38.9 µM (inactive),66.7 µM (inactive),36.3 µM (inactive),42.5 µM (inactive),84.1 µM (inactive),> 100 µM (inactive),36.1 µM (inactive),36.1 µM (inactive),31.5 µM (inactive)
O=C(N/N=C\c1cccc2ccccc12)Nc1cccc2ccccc12,33.7 µM (inactive),19.9 µM (inactive),44.1 µM (inactive),4.32 µM (inactive),10.7 µM (inactive),65.9 µM (inactive),13.1 µM (inactive),16 µM (inactive),25.9 µM (inactive),28.8 µM (inactive),> 100 µM (inactive),26.9 µM (inactive),> 100 µM (inactive),11.4 µM (inactive),7.8 µM (inactive),10.6 µM (inactive),41.9 µM (inactive),5.43 µM (inactive),18.6 µM (inactive),23.7 µM (inactive)
Fc1cccc(F)c1C1SCc2nc3cc(Cl)ccc3n21 (stereo not given),22.7 µM (inactive),> 100 µM (inactive),31.3 µM (inactive),14 µM (inactive),80.9 µM (inactive),31.2 µM (inactive),16 µM (inactive),55.1 µM (inactive),> 42.9 µM (inactive),30.6 µM (inactive),68.5 µM (inactive),34.4 µM (inactive),84.1 µM (inactive),22 µM (inactive),15 µM (inactive),38.7 µM (inactive),56.5 µM (inactive),41.5 µM (inactive),39.7 µM (inactive),28.5 µM (inactive)
